Test results from patent publication US20140073793A1, “Germanium-containing camptothecin analogues” (BioNumeric Pharmaceuticals, Inc., priority 2012, published 2014).
Read-outs that look alike come from different tables or passages of the source.

Experiments:
A2780/WT cells = experiment: cells; type: cell-based, human
Description: (§1) Wild type human ovarian cancer cells (A2780/WT) and doxorubicin-resistant human ovarian cancer cells (A2780/DX5) were cultured in RPMI 1640 medium supplemented with 10% fetal bovine serum and 2 mM glutamine, and grown in a 37° C. incubator with 5% CO2. BNP1350 (also designated 7-[2-trimethylsilyl)ethyl]-20(S)-camptothecin; BNP1350; and Karenitecin®); BNP1394 (also designated 7-[2′-trimethylgermanyl]ethyl-20(S) camptothecin; Topotecan; and 9-NH2-camptothecin were synthesized and purified at BioNumerik Pharmaceuticals, Inc., and dissolved in DMSO for use in cytotoxicity experiments where inhibition of cell growth was measured using the sulforhodamine B (SRB) assay to assess cytotoxicity and absorbance at 570 nm (A570) in order to calculate the percentage of cell control (or percent cell survival) SRB assay. See. e.g., Skehan P., Stieng R., Scudiero D., et al. New colorimetric cytotoxicity assay for anticancer-drug screen. J. Natl. Cancer Inst. 82:1107-1112 (1990)).
(§2) Briefly, cells were seeded (500 cells/well in 100 μL volume) to 96-well microliter plates and allowed to attach for 24 hours prior to treatment with BNP1350, BNP1394, Topotecan, and 9-NH2-camptothecin for 2 hours. Following this 2 hour treatment, BNP1350, BNP1394, Topotecan, and 9-NH2-camptothecin were removed, cells were washed with drug-free media (200 μL) and then drug-free media (200 μL) was added to the cells and cells were allowed to continue growing at 37° C. with 5% CO2 before the SRB assay was performed (total experiment time from time of seeding was 5 days, during which a total of five (5) cell-doublings occurred).
(§3) Wild-type human ovarian cancer cells (A2780/WT) and doxorubicin-resistant human ovarian cancer cells (A2780/DX5) were cultured in RPMI 1640 medium supplemented with 10% fetal bovine serum and 2 mM L-glutamine, and grown in a 37° C. incubator with 5% CO2. Population doubling times for the two cell lines used in this study encompassed a total of five cell doublings corresponding to approximately 5 days for A2780/WT and A2780/DX5 cells. Both cell lines were maintained as monolayered cultures in T-25 or T-75 flasks and then seeded to microliter plate wells for experiments described herein.
(§4) In brief, cells were seeded (500 cells/well in 100 μL total volume) into 96-well microliter plates and allowed to attach for 24 hours prior to treatment with BNP1350, BNP1394, Topotecan, or 9-NH2-camptothecin for 2 hours. The aforementioned compounds were dissolved in DMSO for use in cytotoxicity experiments where inhibition of cell growth was measured using the SRB assay.
(§5) Following this 2 hour drug treatment, the BNP1350, BNP1394, Topotecan, and 9-NH2-camptothecin were removed, cells were washed with drug-free media (200 μL) and then drug-free media (200 μL) was added to the cells and cells were allowed to continue growing at 37° C. with 5% CO2 before the SRB assay was performed (total experiment time from time of seeding was 5 days, during which time a total of 5 cell doublings had occurred).
(§6) The sulforhodamine B (SRB) cytotoxicity assay (see, Skehan P, et al., New colorimetric cytotoxicity assay for anticancer-drug screening. J. Natl. Cancer Inst. 82:1107-1112 (1990)) was used to determine the cytotoxic effects of BNP1350, BNP10120 or BNP10121 on cell growth in vitro. Briefly, after the medium was aspirated from individual plate wells, trichloroacetic acid (100 μL of 10.0% solution) was added to each well, and the plates were incubated at 4° C. for at least 1 hour. The plates were washed five-times with water using an automated microplate washer (Model EL 404, Bio-Tek Instruments), SRB solution (100 μL of 0.4 grams SRB dissolved in 100 mL 1.0 percent acetic acid) was added, and plates remained at room temperature for 15 minutes. The plates were then washed five-times using acetic acid (1.0%), air dried, and bound dye was solubilized in Tris base (150 μL, 10 mM). […]

A2780/DX5 cells = experiment: cells; type: cell-based, human
Description: as §1, §2, §3, §4, §5, §6

[1] = 2 hour drug treatment, SRB at 5 days, read-out: IC50 Test 1
[2] = 2 hour drug treatment, SRB at 5 days, read-out: IC50 Test 2
[3] = 2 hour drug treatment, SRB at 5 days, read-out: IC50 Test 3
[4] = 2 hour drug treatment, SRB at 5 days, read-out: IC50 Test 4
[5] = 2 hour drug treatment, SRB at 5 days, read-out: IC50 Test 5
[6] = 2 hour drug treatment, SRB at 5 days, read-out: IC50 Test 6
[7] = average of Tests 1-6, read-out: IC50 Average
[8] = average of the tests, read-out: IC50 Average
[9] = Homo sapiens, 2 hour drug treatment, SRB at 5 days, read-out: IC50 Test 1
[10] = Homo sapiens, 2 hour drug treatment, SRB at 5 days, read-out: IC50 Test 2
[11] = Homo sapiens, 2 hour drug treatment, SRB at 5 days, read-out: IC50 Test 3
[12] = Homo sapiens, 2 hour drug treatment, SRB at 5 days, read-out: IC50 Test 4
[13] = Homo sapiens, 2 hour drug treatment, SRB at 5 days, read-out: IC50 Test 5

| Compound | inhibition of cell growth (in words) (A2780/WT cells) | IC50 (A2780/WT cells; [1]) [µM] | IC50 (A2780/WT cells; [2]) [µM] | IC50 (A2780/WT cells; [3]) [µM] | IC50 (A2780/WT cells; [4]) [µM] | IC50 (A2780/WT cells; [5]) [µM] | IC50 (A2780/WT cells; [6]) [µM] | IC50 (A2780/WT cells; [7]) [µM] | inhibition of cell growth (in words) (A2780/DX5 cells) | IC50 (A2780/DX5 cells; [1]) [µM] | IC50 (A2780/DX5 cells; [2]) [µM] | IC50 (A2780/DX5 cells; [3]) [µM] | IC50 (A2780/DX5 cells; [4]) [µM] | IC50 (A2780/DX5 cells; [5]) [µM] | IC50 (A2780/DX5 cells; [8]) [µM] | IC50 values (in words) (A2780/WT cells) | IC50 values (in words) (A2780/DX5 cells) | further results |
| --- | --- | --- | --- | --- | --- | --- | --- | --- | --- | --- | --- | --- | --- | --- | --- | --- | --- | --- |
| CC[C@@]1(O)C(=O)OCc2c1cc1n(c2=O)Cc2cc3c(N)cccc3nc2-1 [9-NH2-camptothecin, 9-amino camptothecin] | inhibitors | 0.15 | 0.09 | 0.15 | 0.2 | 0.25 | 0.09 | 0.155 | inhibitors | 0.6 | 0.25 | 0.25 | 0.55 | 0.6 | 0.45 |  |  |  |
| CC[C@@]1(O)C(=O)OCc2c1cc1n(c2=O)Cc2c-1nc1ccccc1c2CC[Si](C)(C)C [BNP1350] | inhibitors | 0.015 | 0.015 | 0.015 | 0.02 | 0.013 | 0.016 | 0.015 | inhibitors | 0.015 | 0.015 | 0.015 | 0.024 | 0.01 | 0.016 | nanomolar | nanomolar |  |
| CC[C@@]1(O)C(=O)OCc2c1cc1n(c2=O)Cc2c-1nc1ccccc1c2C[CH2][Ge]([CH3])([CH3])[CH3] [BNP1394, 7-[2′-trimethylgermanyl]ethyl-20(S) camptothecin] | inhibitors |  |  |  |  |  |  |  | inhibitors |  |  |  |  |  |  | nanomolar | nanomolar |  |
| CC[C@@]1(O)C(=O)OCc2c1cc1n(c2=O)Cc2cc3c(CN(C)C)c(O)ccc3nc2-1 [Topotecan, 9-dimethylaminomethyl-10-hydroxy camptothecin] | inhibitors |  |  |  |  |  |  |  | inhibitors |  |  |  |  |  |  |  |  | IC50 (A2780/WT cells; [9]): 0.35 µM; IC50 (A2780/WT cells; [10]): 0.2 µM; IC50 (A2780/WT cells; [11]): 0.3 µM; IC50 (A2780/WT cells; [12]): 0.6 µM; IC50 (A2780/WT cells; [13]): 0.9 µM; IC50 (A2780/WT cells; Homo sapiens, 2 hour drug treatment, SRB at 5 days, read-out: IC50 Test 6): 0.6 µM; IC50 (A2780/WT cells; Homo sapiens, average of Tests 1-6, read-out: IC50 Average): 0.492 µM; IC50 (A2780/DX5 cells; [9]): 0.55 µM; IC50 (A2780/DX5 cells; [10]): 0.8 µM; IC50 (A2780/DX5 cells; [11]): 2 µM; IC50 (A2780/DX5 cells; [12]): 1 µM; IC50 (A2780/DX5 cells; [13]): 2 µM; IC50 (A2780/DX5 cells; Homo sapiens, average of the tests, read-out: IC50 Average): 1.27 µM |
